The source of these data is patent US20060099712A1, “Correlation of anti-cancer activity of dyes with redox potentials” (Eastman Kodak Company, priority 2004, published 2006).

Molecules are shown by their SMILES. Several values for one entry are separate records, joined by “and”; a condition that tells them apart may be missing. Equal entries are not always repeated. A value given as a limit tells only on which side of the number the result lay.

The assay relates to CX-1 Human Colon Carcinoma. Nature of the assay: Clonogenic dye screening assay, CX-1 cells (IC50). Type of assay: cell-based. Details: CX: unit not given here. The note with it: for CV/CX (selectivity, kill ratio): ratio of IC50 in normal CV-1 line to IC50 in carcinoma CX-1 line; for CX: CX-1 cells; for CX (IC50 in the CX-1 cell line): 3 hrs treatment, colonies after 7-10 days, unit from method b117-118; for CV/C: selectivity ratio, value of 1 where dye inactive. The text has this:
CX-1 is a cancerous human colon adenocarcinoma cell line. CV-1 is a non-cancerous control, which is a kidney epithelial cell line from an African green monkey. IC50 is the dye concentration at which 50% of the cells are killed. Selectivity or kill ratio is defined as the ratio of […] at IC50 for both CX-1 and CV-1. A ratio with a high number indicates a high selectivity.
The dyes were screened in two cell lines. CX-1 is a human colon adenocarcinoma cell line. CV-1 is a kidney epithelial cell line from an African green monkey. CV-1 was used as a reference because no normal human epithelial cell line is available for clonogenic assay.
In the initial screen, dyes were examined at six different concentrations to generate a dose response curve. An IC50 value, the concentration at which 50% of the cells are killed, was then calculated. Initially, a dye concentration of 1.0 μg/mL was the highest examined for the CX-1 cell line and 0.005 μg/mL was the lower limit. The corresponding limits on the CV-1 cell line were […].
The screening procedure used a response curve that was determined from eight dye concentrations. The upper and lower limits of CX-1 were 0.32 and 0.0015 μg/mL, respectively, and the corresponding revised limits on CV-1 were 3.2 and 0.025 μg/mL. The screening results were reported by assigning an IC50 value to each dye for the CV-1 and CX-1 cell lines. These values will be referred to herein simply as CV and CX. The most desirable result would be to have a dye that was highly toxic to carcinoma cells but nontoxic to ‘normal’ cells. One measure of this type of selectivity is the ratio of the IC50's in the normal cell line to that in the carcinoma line, CV/CX.
Compounds are screened via an in vitro assay. CV-1 and CX-1 cells are seeded into separate assay plates. The plates are treated with varying concentrations of test compounds, rinsed, and colonies allowed to grow. IC50's are determined and drugs evaluated based on their selectivity and toxicity. Assay Steps: • I. Seeding Cells • II. Weighing • III. Preparation of Solution • IV. Treatment • V. Rinsing and Feeding • VI. Fixing • VII. IC50 Determination I. Seeding Cells
The cells should be seeded 16-30 hours before treatment. The media for CV-1 cells is DME+5% calf serum +5% Nuserum. The media for CX-1 cells is RPMI/DME (50/50)+5% calf serum +5% Nuserum.
(c) number of cells based on 2000 CX-1 cells/well and 1000 CV-1 cells/well. NOTE: Always make enough cell suspension for 1 extra plate to allow for volume loss during transfers.
• (a) For CV-1: 256 ug/ml-256 ul of 1 mg/ml stock +744 ul DMSO • (b) For CX-1: 25.6 ug/ml-100 ul of 256 ug/ml+900 ul DMSO IV. Treatment • 1. Each plate is treated with 4 test compounds, one positive control and one negative control. • 2. Serial dilutions of the compounds are made in the following way:
2 multi-well pipetters are used. One is set for 10 ul and one for 200 ul. Each is equipped with 6 tips spaced such that they fit into the 6 rows of a plate. 390 ul of media is added to the first column of each plate. 10 ul each of 4 compound solutions, a positive and a negative control are taken up and put into the first column of wells. The 200 ul pipetter is then placed in the same wells, pipetted up and down 3 times and two 200 ul aliquots are moved to the next column of wells. This column is pipetted up and down 3 times and 400 ul moved to column 3, etc. The final 400 ul excess from column 8 is discarded.
• 3. Label the plates along the front, each row −1 compound. • 4. Incubate the plates at 37° C. for 3 hrs. V. Rinsing • 1. Prepare several bottles of CX-1 and CV-1 media. • 2. Check for precipitate in first column of each plate and note. • 3. Starting with the plates treated first, rinse several plates at a time by aspirating the treatments and refilling each well with 0.5-1.0 ml of the rinse media. Aspirate and refill 2 more times for a total of 3 rinses. • 4.

Setting [1] is: Table XVI, selectivity ratio of IC50 values.
[2] abbreviates: Table XV, selectivity ratio of IC50 values.
[3] abbreviates: Table XXI, oxathiacarbocyanine nitrogen substituents.

On to `CCN1C(=CC=c2sc(=Cc3sc4c([n+]3CC)CCCC4)n(CC)c2=O)Oc2ccccc21.[I-]` (mixture of isomers) [Dye D-170], for which the “CV/CX (selectivity, kill ratio)” value amounted to 100.0. With `CCN1/C(=C/C=C/c2sc3ccccc3[n+]2CC)C(C)(C)c2ccccc21` [3H-indole (3,3-Me)], under “Table XVI, unsymmetrical dyes”, the CX is given as 0.16. Moreover, the CV/CX under setting [1] was determined as 0.3. The compound `CCN1C=CC(=C/C=C/c2sc3ccccc3[n+]2CC)c2ccsc21` [4-thieno/2,3-b/pyridine] yielded a CX (Table XVI, unsymmetrical dyes) of 0.04. Further, the CV/CX under setting [1] is on record as 5.0.

On to `CC[n+]1c(/C=C/C=C2C=CC=CN2C)sc2ccccc21` [Dye 2-pyridine], for which the CX (Table XVI, unsymmetrical dyes) was found to be 0.08. Also, the CV/CX under setting [1] is 50.0. For the compound `CCN1C(=C/C=C/c2sc3ccccc3[n+]2C)C=Cc2ccccc21` [Dye 2-quinoline], the CX (Table XVI, unsymmetrical dyes) is listed as <0.005. For the same compound, the CV/CX under setting [1] is >20.0.

On to `CC[n+]1c(/C=C/C=C2C=CN(C)c3ccccc32)sc2ccccc21` [Dye 4-quinoline], for which the CX (Table XVI, unsymmetrical dyes) turned out to be 0.01. Moreover, the CV/CX under setting [1] stood at 40.0. With `CCN1C=C(c2ccccc2)SC1=CC=Cc1sc2ccccc2[n+]1CC` [Dye 5-Ph-thiazole], for the setting “Table XVI, unsymmetrical dyes”, the CX worked out at 0.03. The CV/CX under setting [1] came out at 16.7. Turning to `CN1C(=CC=Cc2[te]c3ccccc3[n+]2C)[Te]c2ccccc21` [Dye B19682], the CX (Table XV, symmetrical dyes) turned out to be 0.3. In addition, under setting [2], the CV/CX stood at 16.7. On the same counts, the results for `CCN1C(=CC=Cc2ccc3ccccc3[n+]2CC)C=Cc2ccccc21` [Dye B-301] are 0.040 and 12.5.

In turn, `CCN1C(=CC=Cc2oc3ccccc3[n+]2CC)Oc2ccccc21` [Dye B-400] showed a CX (Table XV, symmetrical dyes) of 0.10. Under setting [2], the CV/CX worked out at 30.0. `CN1C(=CC=Cc2[se]c3ccccc3[n+]2C)[Se]c2ccccc21` [Dye B-405] showed a CX (Table XV, symmetrical dyes) of 0.008. The CV/CX under setting [2] turned out to be 7.5. Take `C(/C=C/c1sc2cccc3c2[n+]1CCC3)=C1/Sc2cccc3c2N1CCC3` [Dye D-102]: the “CX (IC50 in the CX-1 cell line)” value is <0.005 mg/L and the “CV/CX (selectivity, kill ratio)” value is on record as 160.

On to `CCN1/C(=C/C=C/c2sc3cc(Cl)ccc3[n+]2CC)Sc2cc(Cl)ccc21` [Dye D-105], for which the “CX (IC50 in the CX-1 cell line)” value was determined as 0.008 mg/L and the “CV/CX (selectivity, kill ratio)” value is 112.5. This compound returned a Selectivity (Table 1, cell line not given, values equal CV/CX of Table II) of 112.5. On to `CCN(CC)CCN1/C(=C/C=C/c2oc3ccccc3[n+]2CC)Sc2ccccc21.I.[I-]` [Dye D-116], for which the “CV/CX (selectivity, kill ratio)” value is recorded as 80. `CCN1C=C(c2ccccc2)O/C1=C\C=C\c1oc(-c2ccccc2)c[n+]1CC.[I-]` [Dye D-118]: the “CX (IC50 in the CX-1 cell line)” value came to 0.08 mg/L and the “CV/CX (selectivity, kill ratio)” value was 93.75. Take `CC[n+]1c(/C=C/C=C2\SC(C)=C(C)N2C)oc2ccccc21.[I-]` [Dye D-119]: the “CX (IC50 in the CX-1 cell line)” value came to 0.05 mg/L and the “CV/CX (selectivity, kill ratio)” value is 60. `CCN1/C(=C/C=C/c2c3ccccc3c3ccccc3[n+]2C)Sc2ccccc21` [Dye D-129]: the “CX (IC50 in the CX-1 cell line)” value worked out at 0.008 mg/L and the “CV/CX (selectivity, kill ratio)” value was found to be 87.5. Besides, the CX (Table XVI, unsymmetrical dyes) turned out to be 0.008. Besides, the CV/CX under setting [1] was 87.5. As to `CCn1c(=O)/c(=C/C=C2\C=Cc3cccc4c3N2CCC4)s/c1=C\c1oc2ccccc2[n+]1CC` [Dye D-143], the “CX (IC50 in the CX-1 cell line)” value worked out at 0.1 mg/L and the “CV/CX (selectivity, kill ratio)” value turned out to be 100.

As for `CC[n+]1c(/C=C/C=C2\[Te]c3ccccc3N2C)sc2ccc3ccccc3c21.[I-]` [Dye D-151], the “CX (IC50 in the CX-1 cell line)” value was 0.007 mg/L; the “CV/CX (selectivity, kill ratio)” value is 71 and 71.42. Moreover, the CX (Table XVII, benzotellurazole derivatives) was 0.007. Besides, the CV/CX (Table XVII, selectivity ratio of IC50 values) is given as 71.4.

As to `CCN1/C(=C/C=C/c2oc3ccc(-c4ccccc4)cc3[n+]2CCNC(C)=O)Sc2ccc(OC)cc21.F[B-](F)(F)F` [Dye D-154], the “CX (IC50 in the CX-1 cell line)” value was 0.05 mg/L and the “CV/CX (selectivity, kill ratio)” value is 160. For the compound `CCN1/C(=C/C=C/c2sc3cc(Cl)ccc3[n+]2CC)Sc2cc(Cl)ccc21.[I-]` [Dye D-164], the “CV/CX (selectivity, kill ratio)” value stood at 112.5. Take `CCN1/C(=C/C=C/c2sc3ccccc3[n+]2CC)Sc2ccccc21.[I-]` [Dye D-165]: the “CV/CX (selectivity, kill ratio)” value amounted to 100. Also, the CV/CX under setting [1] came out at 100.0. As to `CCN1/C(=C/C(=C/c2oc3ccccc3[n+]2C)SC)Sc2ccc(Cl)cc21.[I-]` [Dye D-169], the “CV/CX (selectivity, kill ratio)” value stood at 100.0. Turning to `CCOC(=O)c1c(C)c(C=CC=C2SCCN2C)cc2[n+]1CCc1ccccc1-2.[O-][Cl+3]([O-])([O-])[O-]` [Dye D-171], the “CV/CX (selectivity, kill ratio)” value is listed as 62.5. The compound `C=C(Br)C[n+]1c(/C=C/C=C2\Oc3ccccc3N2CC)sc2ccccc21` [R1=CC(Br)═C, R2=Et] had a CX under setting [3] of 0.03. The CV/C (Table XXI) worked out at 33.3. Under setting [3], `CCN(CC)C(=O)C[n+]1c(/C=C/C=C2\Oc3ccccc3N2CC)sc2ccccc21` [R1=CC(═0)N(Et)2, R2=Et] yielded a CX of 0.3. The CV/C (Table XXI) was >33.3. For `CCN1/C(=C/C=C/c2sc3ccccc3[n+]2CC(=O)c2ccccc2)Oc2ccccc21` [R1=CC(═0)Ph, R2=Et], in that order: 0.3 and 10.0. As to `CCN1/C(=C/C=C/c2sc3ccccc3[n+]2CC(=O)c2ccc(O)cc2O)Oc2ccccc21` [R1=CC(═0)Ph-2,4-OH, R2=Et], the CX under setting [3] is on record as 0.3. Besides, the CV/C (Table XXI) is >33.3.

As for `CCN1/C(=C/C=C/c2sc3ccccc3[n+]2CC(=O)c2ccc(O)c(O)c2)Oc2ccccc21` [R1=CC(═0)Ph-3,4-OH, R2=Et], the CX under setting [3] is on record as >1.0. Where the note is “Table XXI”, the CV/C stood at 1.0.

Consider `CCN1/C(=C/C=C/c2sc3ccccc3[n+]2CC(=O)N2CCOCC2)Oc2ccccc21` [R1=CC(═0)morpholino, R2=Et], for which, under setting [3], the CX was >1.0. The CV/C (Table XXI) is listed as 1.0. As to `CCN1/C(=C/C=C/c2sc3ccccc3[n+]2CC(N)=O)Oc2ccccc21` [R1=CC(═O)N, R2=Et], for the setting “Table XXI”, the CV/C is listed as >10.0. Consider `CCSC(CCN1/C(=C/C=C/c2sc3ccccc3[n+]2CCC(SCC)SCC)Sc2ccccc21)SCC` [R1=CCC(SEt)2, R2=CCC(SEt)2], for which the CX (Table XX, thiacarbocyanine nitrogen substituents) was >0.32. Further, the CV/CX (Table XX, ratio given a value of 1 where dye inactive) came out at 4.1. Under setting [3], `CCN1/C(=C/C=C/c2sc3ccccc3[n+]2CCC(=O)N(c2ccccc2)C(C)C)Oc2ccccc21` [R1=CCC(═O)N(iPr)Ph, R2=Et] returned a CX of 0.03. In addition, the CV/C (Table XXI) came out at 26.7. On the same counts, the results for `CCN1/C(=C/C=C/c2sc3ccccc3[n+]2CCC=O)Oc2ccccc21` [R1=CCC═0, R2=Et] are 0.1 and 50.0. Turning to `CCN1/C(=C/C=C/c2sc3ccccc3[n+]2CCC=NNC(N)=S)Oc2ccccc21` [R1=CCC═NNC(═S)N, R2=Et], under setting [3], the CX is recorded as >1.0. Besides, where the note is “Table XXI”, the CV/C came to 1.0. For `CCN1/C(=C/C=C/c2sc3ccccc3[n+]2CCC=NNS(=O)(=O)c2ccc(C)cc2)Oc2ccccc21` [R1=CCC═NNS02Ph-4C, R2=Et], in that order: 0.3 and 33.3.
